Source: publication PMC11148078, “Potent activity of polymyxin B is associated with long-lived super-stoichiometric accumulation mediated by weak-affinity binding to lipid A” (Nature Communications, 2024)
Bridge positions count the residues as written; N and C are the ends. Square brackets hold non-standard residues; d marks the D form. Peptide text beside a SMILES is read from it. * marks the point of attachment. X1 = CC[C@H](C)CCCCC(=O)*; Dab = NCC[C@H](N)C(=O)O

Tests used:
[1] = system: LPS (rough-LPS extracted from E. coli F583, Rd mutant); experiment: Mechanistic SPR study, purified LPS; assay type: binding; settings: for Rmax normalized by molecular weight ratio PMB:PMBN: LPS surface
Procedure: OMV-coated and whole cell-coated C1 chips were prepared as already described with the following changes and LPS-coated surfaces were prepared identically but with rough-LPS extracted from E. coli F583 (Rd mutant, Sigma #L6893). For LPS, cloudy colloid suspension (above its CMC, ~1 mg/ml) contains LPS micelles that were injected and captured. For all formats, sample buffer and running buffer were composed of Dulbecco’s phosphate-buffered salt solution containing 0.0005% tween-80 (Sigma), 1 mM calcium and 0.5 mM magnesium (Fisher Scientific), pH 7.4. Analysis and compartment temperatures were both set to 37 °C. Freshly prepared OMV-coated or whole cell-coated sensing surfaces were employed for each injection of polymyxin B while LPS-coated sensing surfaces could be fully regenerated by injecting 50 mM CHAPS. Reversibly bound PMBN could be reinjected over all surfaces without requiring regeneration as it fully dissociated within a few minutes.
Serial doubling dilutions of PMBN were injected from […] over whole cells and OMVs at […] for 1 min (Fig. 3A, B). This was repeated over LPS-coated sensing surfaces and, in this case, serial doubling dilutions of PMBN were injected from 5 mM to 0.625 mM for 30 s at […], immediately prior to injection of […] polymyxin B for 200 s at […] (Fig. 3D).
Fresh sensing surfaces coated with whole cells and OMVs were prepared and 325 nM polymyxin B was injected at […] for 120 s over both. This injection was repeated after a long delay, and without regeneration, in order to allow free sites to become available thereby resulting in two polymyxin B binding curves for each sensing surface (Fig. 3E, F). A fresh LPS-coated surface was prepared and polymyxin B was injected using SCK injection mode over a serial doubling dilution range from 625 nM to 39 nM.
Section 1 - Mechanistic studies of polymyxins
The interaction models introduced here (Eqn (S1-S3)) are annotated in terms of binding of polymyxin B (PMB) to LPS but also apply to any other affinity binding pair. Molar concentrations of bound PMB are converted to SPR response as R = G.MW.[PMB], where MW is the molecular weight of PMB, and G is a mass-to-response conversion factor. A full quantitative interpretation of SPR sensitivity has been reported1. In a general case, a protein concentration of 0.01 (g/L) produces a response of 1 response unit (RU) yielding the proportionality constant G=100 (L/g).
Here, we assume protein is distributed uniformly within a […] thick hydrogel, dissolved in buffer at near physiological salt concentrations in the absence of high concentrations of high refractive index substances, such as glycerol and DMSO. This calibration may be adjusted for variability in the refractive index increment when working with buffers or other classes of molecules such as nucleic acids, polysaccharides, or drug-like molecules. In addition, binding interactions confined to planar sensing surfaces (i.e., no hydrogel matrix) results in a 1.3-fold increased response due to minimal decay in SPR sensitivity when close to the sensing surface (e.g., < 10 nm). Change in protein accumulation over time produces responses that are indicated here by a time subscript (e.g., R(t)). A simple 1:1 model for binding of PMB to LPS to form an affinity complex PMBL is given by the pseudo-first-order model defined by Eqn (S1). dR/dt = (kon.[PMB]i.(Rmax-R(t)) -koff.R(t)) Eqn (S1)
Where R is the SPR response for accumulation of affinity complex PMBL. [PMB]i is the injected concentration of PMB and Rmax is the saturation response assuming full target occupancy. This model assumes that mass transport of PMB within the flow cell, which governs the rate of exchange of PMB between the bulk liquid and the sensing surface, is non-limiting. However, this […]
in the 1:1 two-compartment model in Eqn (S2). dR/dt = (kon.[PMB].(Rmax-R(t)) -koff.R(t)) + kt.([PMB]i(t) – [PMB]) Eqn (S2) […]

E. coli PmrA^G53E = assay type: cell-based; settings: for MIC: LB + 0.0005% tween-80, overnight 37 °C
Procedure: (§1) Bacterial strains and plasmids are listed in SI Table S5. LB growth media was prepared according to manufacturer’s instructions and supplemented with 0.2% arabinose and carbenicillin (50 μg/mL) for the strains containing pBAD24-mcr1 plasmid. Cultures were started by inoculating 3 ml LB with 1–2 colonies from fresh overnight plates and grown at 37 °C until in log phase. Modified minimal inhibitory concentration (MIC) assays were performed in 96-well round bottom polystyrene plates (Corning) with a final volume of 100 µl in LB supplemented with tween-80 at 0.0005%. […] Polymyxin B sulfate (TCI Co. Ltd), polymyxin B nonapeptide (PMBN) (Sigma), and brevicidine (Genentech) were diluted directly in the assay plates. Bacteria were diluted in LB with tween-80 0.0005% and added to a final OD600 of 0.0005. Growth was measured via OD600 on a SpectraMax M5 plate reader after overnight static growth at 37 °C with humidity.

E. coli mcr1 = assay type: cell-based; settings: for MIC: strain carrying plasmid encoding mcr-1, LB + 0.2% arabinose, carbenicillin, 0.0005% tween-80, overnight 37 °C
Procedure: as §1

[2] = LPS pre-saturated with polymyxin B

Structure (SMILES): CC(C)C[C@@H]1NC(=O)[C@@H](Cc2ccccc2)NC(=O)[C@H](CCN)NC(=O)[C@@H](NC(=O)[C@H](CCN)NC(=O)[C@@H](N)[C@@H](C)O)CCNC(=O)[C@H]([C@@H](C)O)NC(=O)[C@H](CCN)NC(=O)[C@H](CCN)NC1=O [PMBN] (H-T[Dab][Dab][Dab][dF]L[Dab][Dab]T; lactam 3-C)
- change in affinity and binding capacity after pre-saturation [1, 2]: two-fold drop in both affinity and binding capacity
- fold loss in affinity [1, 2]: 2 fold
- fold loss in binding capacity [1, 2]: 2 fold
- Rmax normalized by molecular weight ratio PMB:PMBN [1]: 415 RU
- MIC (E. coli PmrA^G53E): >40 µM
- MIC (E. coli mcr1): >40 µM

Structure (SMILES): CC[C@H](C)CCCCC(=O)N[C@@H](CCN)C(=O)N[C@H](C(=O)N[C@@H](CCN)C(=O)N[C@H]1CCNC(=O)[C@H]([C@@H](C)O)NC(=O)[C@H](CCN)NC(=O)[C@H](CCN)NC(=O)[C@H](CC(C)C)NC(=O)[C@@H](Cc2ccccc2)NC(=O)[C@H](CCN)NC1=O)[C@@H](C)O [Polymyxin B] (X1-[Dab]T[Dab][Dab][Dab][dF]L[Dab][Dab]T; lactam 4-C (inferred); N-terminus assumed)
- Rmax normalized by molecular weight ratio PMB:PMBN [1]: 407 RU
- consumption of available LPS ([1]; immediately after polymyxin B saturation): ~ 40%
- Kd ([1]; two LPS densities, pre-saturated with polymyxin B, SCK from 625 nM, Eq. S3, (± SE)): 0.127 µM
- antibacterial activity (E. coli PmrA^G53E): resistant to killing by polymyxin B
- MIC (E. coli PmrA^G53E): 10 µM
- antibacterial activity (E. coli mcr1; pBAD-mcr-1): resistant to killing by polymyxin B
- MIC (E. coli mcr1): 2.5 to 5 µM
